Data reported in patent US20230331652A1, “TRANS-CYCLOOCTENES WITH HIGH REACTIVITY AND FAVORABLE PHYSIOCHEMICAL PROPERTIES” (University of Delaware, priority 2020, published 2023).
“Also recorded” adds a separate entry of the source.

Key:
[1] = Storage stability of neat TCO; type: physicochemical; settings: neat versus stored in solution
From the text: The diastereoselective additions of 2 with methyl α-lithioacetate or lithioacetonitrile provided a straightforward path to introduce handles for conjugation via amide bond or ether formation. The reaction of ketone 2 with lithium bis(trimethylsilyl)amide (LiHMDS)/methyl acetate produced ester 9 in 86% yield. Similarly, the combination of 2 with LiHMDS and acetonitrile produced nitrile 10 in 98% yield. Hydrolysis of 9 with trimethyltin hydroxide followed by DIC-mediated coupling with N-hydroxysuccinimide gave NHS ester 11 in 89% yield (FIG. 3B). Alternately, using LiOH gave 11 in 46% yield after DIC coupling. Through amide coupling, 11 gave the fluorescent TAMRA-conjugate 12 with favorable physiochemical properties, and 11 was also combined with hydrazine monohydrate to give hydrazide 13 with a potential handle for aldehyde conjugation. TCO 9 also was combined with LiAlH4 to provide diol 14 in 89% yield which was next used in a Williamson ether synthesis with NaH/propargyl bromide to give 96% yield of propargyl ether 15. […] Amine 16 was synthesized by LiAlH4 reduction of TCO nitrile 10 in 93% yield to introduce an acid reactive conjugation handle. […] In summary, ketone 2 can serve as a readily prepared, central intermediate for the diastereoselective preparation of a range of hydrophilic a-TCO conjugates.

[2] = system: HeLa cells transfected with either HaloTag-H2B-GFP (nucleus) or HaloTag-GAP43-GFP (cytoplasm); experiment: TAMRA-a-TCO permeability assay (HaloTag intracellular labeling); type: cell-based; settings: 1 μM, 30 min
Description: Here, cells are transfected with a GFP-HaloTag construct fused to a protein that controls subcellular localization, and then labeled by a tetrazine-HaloTag ligand 21. Upon subsequent reaction with fluorescent TAMRA-a-TCO, conjugation is expected only in those cells that express the HaloTag fusion protein, and co-localization of GFP and TAMRA fluorescence is expected.
HeLa Cell Culture and Transfection: HeLa cells were grown in Dulbecco's modified eagle medium (DMEM, Life Technologies) supplemented with 10% (v:v) heat inactivated fetal bovine serum (Life Technologies), 2 mM I-glutamine, and 100 units/mL penicillin/streptomycin (Life Technologies) in a humidified incubator at 37° C./5% CO2. Transfection was performed with cells at 70% confluency using Lipofectamine 3000 according to the manufacturer's instructions. HeLa cells were incubated for 5 hours at 37° C./5% CO2 before being exchanged with antibiotic free growth media for 16-20 hours prior to experimental procedures. […]

HeLa cells = experiment: TAMRA-TCO comparative washout assay; type: cell-based; settings: 5 μM, 30 min incubation
From the text: While TCO-derivatives offer rapid labeling kinetics, a consideration for labeling by fluorophore-tagged TCOs has been the background fluorescence due to non-covalent cellular binding that can be ameliorated only by extended washout times. More hydrophilic oxo- and dioxo-trans-cyclooctenes with backbone oxygens offer improvements, but are difficult to synthesize and, for dioxo-TCO, display reduced Diels-Alder kinetics. As shown in FIGS. 5A-5C, the fluorescent conjugates TAM RA-TCO, TAMRA-oxo-TCO and TAMRA-a-TCO were prepared and compared their cellular washout times to unconjugated TAMRA. Thus, HeLa cells were incubated for 30 min with TAMRA-dyes, and cells were initially washed three times with DPBS, and then cell media was exchanged after 10, 40 and 120 minutes. After each wash, cells were imaged live by fluorescence microscopy with illumination at 531 nm and fixed-intensity across all samples. Widefield images of the cells after 3 washes are shown in FIG. 5B; images after the earlier and later washings are shown in FIG. 8. Background fluorescence was quantified by dividing total fluorescence by the number of cells in each image (FIG. 5C).
HeLa cells were seeded at 5×10^3 cells per well in a poly-L-lysine (0.1 mg/mL) coated 48-well plate and allowed to grow for 48 hours in Dulbecco's modified eagle medium (DMEM, Life Technologies) supplemented with 5% FBS (Life Technologies), 1 mM L-glutamine, and 1% penicillin/streptomycin (Life Technologies). Cells were then incubated with media containing 5 μM of TAMRA-TCO, TAMRA-oxo-TCO, or TAMRA-a-TCO 12 (1 mM stock solutions in DMSO, diluted twice into media) for 30 mins at 37° C. All wells were washed three times with DPBS before adding fresh media. Cells were imaged after 2 DPBS washes and again after the 3rd DPBS wash, then incubated for additional time intervals: 10 minutes, 40 minutes, and 2 hour. At each time point, the media was removed from the designated wells and replaced with fresh media before imaging. Images were taken with an EVOS M7000 and all images were taken with the same laser power and gain. Fluorescence intensity was calculated for each sample in 3 replicates using ImageJ and the fluorescence data was normalized with the cell count of each image.

SMILES | storage stability [1] | cell permeability ([2]; live HeLa cells, after MeTz-Halo 21 (10 μM)) | colocalization of TAMRA signal with GFP ([2]; nuclear (H2B) and cytoplasmic (GAP43) HaloTag targets, confocal microscopy) | reduction in background fluorescence relative to TAMRA-TCO (HeLa cells; after initial 3× wash) [%] | background fluorescence / washout after 2 hours (HeLa cells; media exchanges up to 2 hours)
C#CCOCC[C@]1(O)CC/C=C/CCC1 [Compound 15, 5-ax-Hydroxy-5-eq-(2-(prop-2-yn-1-yloxy)ethyl)-trans-cyclooctene] | more stable alternative | – | – | – | –
C=CCC1(O)CC/C=C/CCC1 (stereo not drawn) [Compound 6, 5-eq-Allyl-5-ax-hydroxy-trans-cyclooctene] | polymerize if not stored in solution | – | – | – | –
CN(C)c1ccc2c(-c3ccc(C(=O)NCCCCCNC(=O)C[C@]4(O)CC/C=C/CCC4)cc3C(=O)[O-])c3ccc(=[N+](C)C)cc-3oc2c1 [TAMRA-a-TCO, (R,E)-2-(6-(dimethylamino)-3-(dimethyliminio)-3H-xanthen-9-yl)-5-((5-(2-(1-hydroxycyclooct-4-en-1-yl)acetamido)pentyl)carbamoyl)benzoate] | – | cell permeable | subcellular colocalization of GFP and TAMRA fluorescence; also recorded: selective colocalization of the TAMRA signal with GFP was observed | 85 | essentially complete
